Measurements from PubChem BioAssay AID256 (DTP/NCI, 2004).
“And” between values parts separate entries of the source, which are not always exact repeats. Identical values can stand only once. Inconclusive results and toxic doses are left out. Rule for the calls: active = survival T/C of 150% or more; inactive = T/C below 125% in these data.

Test system: CD2F1 mice, L1210 leukemia ip, survival T/C
Assay: NCI In Vivo Anticancer Drug Screen. Data for tumor model L1210 Leukemia (intraperitoneal) in CD2F1 (CDF1) mice
Details: endpoint: mean survival time, higher = longer survival
In short: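 Transplantable tumor in mice; compound-treated vs vehicle-treated groups. Read-out = treated/control ratio of the measured endpoint.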

[1] = dose: 50.0 mg/kg/injection, schedule: Q01DX009 (ip), vehicle: water
[2] = dose: 50.0 mg/kg/injection, schedule: Q01DX009 (ip), vehicle: saline with Tween-80
[3] = dose: 100.0 mg/kg/injection, schedule: Q01DX009 (ip), vehicle: saline with Tween-80
[4] = dose: 100.0 mg/kg/injection, schedule: Q04DX003 (ip), vehicle: saline with Tween-80
[5] = dose: 200.0 mg/kg/injection, schedule: Q04DX003 (ip), vehicle: saline with Tween-80
[6] = dose: 100.0 mg/kg/injection, schedule: Q04DX002 (ip), vehicle: saline with Tween-80
[7] = dose: 200.0 mg/kg/injection, schedule: Q04DX002 (ip), vehicle: saline with Tween-80
[8] = dose: 400.0 mg/kg/injection, schedule: Q04DX002 (ip), vehicle: saline with Tween-80
[9] = dose: 50.0 mg/kg/injection, schedule: Q01DX001 (ip), vehicle: saline with Tween-80
[10] = dose: 100.0 mg/kg/injection, schedule: Q01DX001 (ip), vehicle: saline with Tween-80
[11] = dose: 200.0 mg/kg/injection, schedule: Q01DX001 (ip), vehicle: saline with Tween-80
[12] = dose: 400.0 mg/kg/injection, schedule: Q04DX003 (ip), vehicle: saline with Tween-80
[13] = dose: 400.0 mg/kg/injection, schedule: Q01DX001 (ip), vehicle: saline with Tween-80
[14] = dose: 200.0 mg/kg/injection, schedule: Q01DX009 (ip), vehicle: saline with Tween-80
[15] = dose: 400.0 mg/kg/injection, schedule: Q01DX009 (ip), vehicle: saline with Tween-80
[16] = dose: 50.0 mg/kg/injection, schedule: Q04DX003 (ip), vehicle: saline with Tween-80

Measured: T/C

Nc1nc(N)c2c(n1)NCN(Cc1ccc(Cl)c(Cl)c1)C2
inactive: dose: 0.75 mg/kg/injection, schedule: Q01DX009 (ip), vehicle: water 102 % of control | dose: 1.5 mg/kg/injection, schedule: Q01DX009 (ip), vehicle: water 98 % of control | dose: 3.0 mg/kg/injection, schedule: Q01DX009 (ip), vehicle: water 102 % of control | dose: 6.0 mg/kg/injection, schedule: Q01DX009 (ip), vehicle: water 102 % of control | dose: 12.0 mg/kg/injection, schedule: Q01DX009 (ip), vehicle: water 100 % of control | dose: 24.0 mg/kg/injection, schedule: Q01DX009 (ip), vehicle: water 102 % of control | [1] 94 % of control

Cc1ccc(S(=O)(=O)N/N=C(\C(=O)O)c2ccccc2)cc1
inactive: dose: 12.5 mg/kg/injection, schedule: Q01DX009 (ip), vehicle: Klucel (hydroxypropylcellulose) (HPC) 95 % of control | dose: 25.0 mg/kg/injection, schedule: Q01DX009 (ip), vehicle: Klucel (hydroxypropylcellulose) (HPC) 96 % of control | dose: 50.0 mg/kg/injection, schedule: Q01DX009 (ip), vehicle: Klucel (hydroxypropylcellulose) (HPC) 96 % of control | dose: 100.0 mg/kg/injection, schedule: Q01DX009 (ip), vehicle: Klucel (hydroxypropylcellulose) (HPC) 95 % of control | dose: 200.0 mg/kg/injection, schedule: Q01DX009 (ip), vehicle: Klucel (hydroxypropylcellulose) (HPC) 93 % of control

CNP1(N(C)C)=NP(NC)(N(C)C)=NP(NC)(N(C)C)=N1 (stereo unspecified)
inactive: dose: 100.0 mg/kg/injection, schedule: Q04DX003 (ip), vehicle: saline 98 % of control | dose: 200.0 mg/kg/injection, schedule: Q04DX003 (ip), vehicle: saline 98 % of control

CCCC(C)C/C(C)=C/C(C)(C)C(CC(=O)N1CCOCC1)C(=O)O (stereo unspecified)
inactive: [2] 95 % of control | [3] 93 % of control | [4] 100 % of control | [5] 98 % of control

Oc1ccc(/C=N/NC(=S)Nc2cccnc2)nc1
inactive: [6] 87 % of control | [7] 87 % of control | [8] 91 % of control

Nc1nc(N)c(-c2ccc(Cl)cc2)c(/C=C/C=C/c2ccc([N+](=O)[O-])cc2)n1
inactive: [9] 97 % of control | [10] 92 % of control | [11] 101 % of control

Cn1c2ccccc2c2ccccc21
inactive: [4] 100 % of control | [5] 102 % of control | [12] 97 % of control

O=P(CCC(O)c1ccccc1)(c1ccccc1)c1ccccc1 (stereo unspecified)
inactive: [2] 96 % of control | [3] 92 % of control | [4] 97 % of control | [5] 87 % of control

Cc1ccc(S/C=C/C(=O)Nc2ccccc2)cc1
inactive: dose: 25.0 mg/kg/injection, schedule: Q04DX002 (ip), vehicle: saline with Tween-80 101 % of control | dose: 50.0 mg/kg/injection, schedule: Q04DX002 (ip), vehicle: saline with Tween-80 94 % of control | [10] 97 % of control | [6] 101 % of control | [4] 87 % of control | [11] 105 % of control | [13] 94 % of control

C(=C1c2ccccc2-c2ccccc21)c1cccnc1
inactive: [3] 98 % of control | [4] 101 % of control | [14] 102 % of control | [5] 101 % of control | [15] 88 % of control | [12] 95 % of control

O=C(NC/C=C/Br)Nc1cccc2c1CCCC2
inactive: [2] 94 % of control | [10] 89 % of control | [3] 99 % of control | [11] 86 % of control | [14] 88 % of control

O=C(O)CCS(=O)(=O)CCC(=O)O
inactive: [4] 92 % of control | [5] 93 % of control | [12] 90 % of control

O=C(Nc1ccccc1)c1ccc(Cl)c([N+](=O)[O-])c1
inactive: dose: 25.0 mg/kg/injection, schedule: Q01DX009 (ip), vehicle: saline with Tween-80 95 % of control | dose: 25.0 mg/kg/injection, schedule: Q04DX003 (ip), vehicle: saline with Tween-80 86 % of control | [2] 97 % of control | [16] 89 % of control | [3] 100 % of control | [4] 94 % of control and 101 % of control

Cc1ccc2c(c1)C(C(F)(F)F)(C(F)(F)F)OC(C(F)(F)F)(C(F)(F)F)N2
inactive: [10] 104 % of control | [3] 95 % of control | [11] 103 % of control | [14] 102 % of control | [13] 95 % of control

CCCCCCCCCCCC(=O)NC(=S)Nc1cc(Cl)ccc1Cl
inactive: [9] 89 % of control | [16] 92 % of control | [10] 89 % of control | [3] 86 % of control and 94 % of control | [6] 98 % of control | [4] 92 % of control | [11] 92 % of control | [14] 86 % of control and 92 % of control | [7] 98 % of control | [8] 98 % of control | [12] 86 % of control

C=C(C)CC1(CC)C(=O)NC(=S)NC1=O
inactive: [2] 102 % of control | [3] 101 % of control

CC(=O)N(c1c(-c2ccccc2)nc2ccccc2c1C(=O)O)C1CCCCC1
inactive: [3] 100 % of control | [4] 102 % of control | [14] 96 % of control | [5] 98 % of control | [15] 90 % of control | [12] 90 % of control

OCCOc1ccc2ccccc2c1-c1c(OCCOc2ccc3ccccc3c2-c2c(OCCO)ccc3ccccc23)ccc2ccccc12
inactive: dose: 25.0 mg/kg/injection, schedule: Q01DX001 (ip), vehicle: saline with Tween-80 95 % of control | [9] 91 % of control | [10] 86 % of control | [13] 86 % of control

CN1CCC(Br)(C(=O)c2ccccc2)CC1
inactive: dose: 37.5 mg/kg/injection, schedule: Q01DX009 (ip), vehicle: saline with Tween-80 100 % of control | dose: 75.0 mg/kg/injection, schedule: Q01DX009 (ip), vehicle: saline with Tween-80 95 % of control | dose: 75.0 mg/kg/injection, schedule: Q04DX003 (ip), vehicle: saline with Tween-80 97 % of control | dose: 150.0 mg/kg/injection, schedule: Q01DX009 (ip), vehicle: saline with Tween-80 92 % of control | dose: 150.0 mg/kg/injection, schedule: Q04DX003 (ip), vehicle: saline with Tween-80 98 % of control

O=C(NCCCl)NC1C(O)OC(CO)C(O)C1O (stereo unspecified)
inactive: dose: 12.5 mg/kg/injection, schedule: Q01DX009 (ip), vehicle: water 107 % of control | dose: 25.0 mg/kg/injection, schedule: Q01DX009 (ip), vehicle: water 107 % of control | [1] 104 % of control | dose: 100.0 mg/kg/injection, schedule: Q01DX009 (ip), vehicle: water 104 % of control | dose: 200.0 mg/kg/injection, schedule: Q01DX009 (ip), vehicle: water 105 % of control

CCC(C)(C)C1=C(N=[N+]=[N-])C(=O)C(C(C)(C)CC)=C(N=[N+]=[N-])C1=O
inactive: dose: 100.0 mg/kg/injection, schedule: Q01DX001 (ip), vehicle: other 100 % of control | dose: 200.0 mg/kg/injection, schedule: Q01DX001 (ip), vehicle: other 96 % of control | dose: 400.0 mg/kg/injection, schedule: Q01DX001 (ip), vehicle: other 103 % of control

Oc1c(Br)cc(Br)c(O)c1Br
inactive: [4] 97 % of control | [5] 95 % of control

CCOC(=O)CSC(=S)NC1CCCCC1
inactive: [4] 101 % of control | [5] 98 % of control | [12] 95 % of control

O=C1CSC(=S)N1/N=C/c1cc(Cl)cc(Cl)c1O
inactive: dose: 75.0 mg/kg/injection, schedule: Q01DX001 (ip), vehicle: other 90 % of control | dose: 150.0 mg/kg/injection, schedule: Q01DX001 (ip), vehicle: other 102 % of control

Cn1c(=O)c2c(ncn2CC(=O)NNC(=S)Nc2ccccc2)n(C)c1=O
inactive: dose: 12.5 mg/kg/injection, schedule: Q01DX005 (ip), vehicle: distilled water + Tween-80 121 % of control | dose: 25.0 mg/kg/injection, schedule: Q01DX005 (ip), vehicle: distilled water + Tween-80 121 % of control | dose: 50.0 mg/kg/injection, schedule: Q01DX005 (ip), vehicle: distilled water + Tween-80 93 % of control | dose: 100.0 mg/kg/injection, schedule: Q01DX005 (ip), vehicle: distilled water + Tween-80 106 % of control | dose: 200.0 mg/kg/injection, schedule: Q01DX005 (ip), vehicle: distilled water + Tween-80 93 % of control

CSCc1cn(C2CC(O)C(CO)O2)c(=O)[nH]c1=O (stereo unspecified)
inactive: dose: 12.5 mg/kg/injection, schedule: Q01DX005 (ip), vehicle: water 95 % of control | dose: 25.0 mg/kg/injection, schedule: Q01DX005 (ip), vehicle: water 98 % of control | dose: 50.0 mg/kg/injection, schedule: Q01DX005 (ip), vehicle: water 98 % of control | dose: 100.0 mg/kg/injection, schedule: Q01DX005 (ip), vehicle: water 95 % of control | dose: 200.0 mg/kg/injection, schedule: Q01DX005 (ip), vehicle: water 95 % of control
